The results in this text go back to ChEMBL document CHEMBL1201862, “PubChem BioAssay data set” (2004).

Among the test systems are HL-60; OVCAR-8; RXF 393; HOP-62; MOLT-4; SNB-19; LOX IMVI; 786-0; OVCAR-3; DLD-1; UO-31; TK-10; HCC 2998; A549; SF-268; IGROV-1; K562; HCT-15; M14; MDA-MB-231.
Experiment in all cases: growth of human tumour cells (NCI), 48 h

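Results reflect a 48-hour exposure of cells in 96-well plates to compound at five concentrations. GI50 = concentration required for 50% inhibition of growth.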 Calls of active or inactive are those of the source. Cut-off read from the data, not from the text of the source: active = GI50 up to about 1.1 µM and inactive = higher.

In the case of `O=C1CCC(=O)C1=NNc1cc(Cl)cc(Cl)c1`, the GI50 is 63.5 µM (inactive) in the assay on HL-60; > 100 µM (inactive) in the assay with OVCAR-8; > 100 µM (inactive) with RXF 393; > 100 µM (inactive) in the assay on HOP-62; 53.8 µM (inactive) in the assay with MOLT-4; > 100 µM (inactive) in the assay on SNB-19. Moreover, the GI50 in the assay on LOX IMVI was > 100 µM (inactive); in the assay on 786-0, > 100 µM (inactive); in the assay on OVCAR-3, 26.2 µM (inactive); with DLD-1, > 100 µM (inactive); in the assay on UO-31 it was > 100 µM (inactive); with TK-10, > 100 µM (inactive). Besides, the GI50 is > 100 µM (inactive) with HCC 2998; > 100 µM (inactive) in the assay with A549; > 100 µM (inactive) in the assay with SF-268; > 100 µM (inactive) in the assay on IGROV-1; > 100 µM (inactive) in the assay on K562; 55.8 µM in the assay on HCT-15. In addition, in the assay on M14, the GI50 was > 100 µM (inactive).
In the case of `CNC1C(O)CC(OC2C/C=C(\C)C/C(C)=C/C=C/CCC(C)CNC(=O)/C=C/C=C/C2C)OC1C` (stereo not drawn), the GI50 in the assay on HL-60 was 0.153 µM (active); in the assay on OVCAR-8, 0.324 µM (active); with RXF 393, 1.08 µM (active); with HOP-62, 1.03 µM (active); with MOLT-4, 0.161 µM (active); in the assay with SNB-19 it was 2.84 µM (inactive). Further, the GI50 with LOX IMVI was 0.103 µM (active); in the assay on 786-0, 0.245 µM (active); in the assay on OVCAR-3, 0.986 µM (active); in the assay with DLD-1, 0.26 µM (active); in the assay on UO-31, 2.85 µM (inactive); in the assay with TK-10, 1.1 µM (active). Further, the GI50 in the assay on MDA-MB-231 was 0.841 µM (active); in the assay with HCC 2998 it was 0.286 µM (active); in the assay with A549 it was 0.504 µM (active); with SF-268 it was 0.746 µM (active); in the assay with IGROV-1 it was 1.29 µM (inactive); in the assay with K562 it was 0.0995 µM (active). The GI50 in the assay on HCT-15 was 0.202 µM; in the assay with M14, 0.24 µM (active).
Turning to `COC(=O)OCC1OC(N2C(=O)NC(=O)C(I)C2N=[N+]=[N-])CC1OC(=O)OC` (stereo not drawn), the GI50 with HL-60, with OVCAR-8, in the assay on RXF 393, in the assay with HOP-62, in the assay with MOLT-4 and in the assay on SNB-19 was > 100 µM (inactive) in each case. Also, the GI50 with LOX IMVI, with 786-0, with OVCAR-3, in the assay on DLD-1, with UO-31 and with TK-10 was > 100 µM (inactive) in each case. In addition, the GI50 was > 100 µM (inactive) in the assay on HCC 2998; > 100 µM (inactive) in the assay on A549; > 100 µM (inactive) with SF-268; > 100 µM (inactive) in the assay on IGROV-1; > 100 µM (inactive) in the assay on K562; greater than 100 µM with HCT-15. In addition, in the assay with M14, the GI50 was > 100 µM (inactive).
`CN(C)c1ccc(/C=c2\sc3nnc(-c4ccco4)n3c2=O)cc1`: the GI50 with HL-60, with OVCAR-8, in the assay with RXF 393, in the assay on HOP-62, in the assay with MOLT-4 and with SNB-19 was > 100 µM (inactive) throughout. Moreover, the GI50 in the assay on LOX IMVI, with 786-0, in the assay on OVCAR-3, in the assay on DLD-1, in the assay with UO-31 and in the assay on TK-10 was > 100 µM (inactive) in each case. Moreover, the GI50 in the assay on HCC 2998, in the assay on A549, with SF-268, with IGROV-1, in the assay with K562 and in the assay on M14 was > 100 µM (inactive) in each case.
Regarding `O=C1CSc2ccncc2N1`, the GI50 is > 100 µM (inactive) with HL-60; > 100 µM (inactive) with OVCAR-8; > 100 µM (inactive) with RXF 393; > 100 µM (inactive) in the assay with HOP-62; > 100 µM (inactive) in the assay on MOLT-4; 8.93 µM (inactive) with SNB-19. The GI50 in the assay with LOX IMVI, in the assay with 786-0, with OVCAR-3, in the assay with DLD-1, with UO-31 and with TK-10 was > 100 µM (inactive) throughout. Moreover, the GI50 in the assay with HCC 2998 was > 100 µM (inactive); in the assay on A549, > 100 µM (inactive); with SF-268, > 100 µM (inactive); in the assay with IGROV-1 it was > 100 µM (inactive); in the assay on K562 it was > 100 µM (inactive); with HCT-15 it was greater than 100 µM. Further, in the assay on M14, the GI50 is > 100 µM (inactive).
As for `NC(=O)NNC(=O)NC12CC3CC(CC(C3)C1)C2`, the GI50 in the assay on HL-60, with OVCAR-8, in the assay on RXF 393, with HOP-62, in the assay on MOLT-4 and in the assay on SNB-19 was > 100 µM (inactive) each time. The GI50 in the assay on LOX IMVI, in the assay on 786-0, in the assay with OVCAR-3, in the assay on DLD-1, in the assay on UO-31 and with TK-10 was > 100 µM (inactive) each time. Further, the GI50 with HCC 2998 was > 100 µM (inactive); in the assay on A549, > 100 µM (inactive); in the assay on SF-268, > 100 µM (inactive); in the assay on IGROV-1 it was > 100 µM (inactive); with K562 it was > 100 µM (inactive); with HCT-15, greater than 100 µM. Besides, the GI50 in the assay on M14 was > 100 µM (inactive).
`COC(=O)C(=O)C(C(=O)C=C(C)C)C(=O)C(=O)Nc1ccc(C)cc1C` (stereo not drawn): the GI50 in the assay with HL-60, in the assay on OVCAR-8, with RXF 393, with HOP-62, in the assay with MOLT-4 and in the assay with SNB-19 was > 100 µM (inactive) throughout. For the same compound, the GI50 in the assay on LOX IMVI, with 786-0, in the assay with OVCAR-3, with DLD-1, with UO-31 and in the assay with TK-10 was > 100 µM (inactive) each time. The GI50 is > 100 µM (inactive) in the assay on HCC 2998; > 100 µM (inactive) in the assay with A549; > 100 µM (inactive) with SF-268; > 100 µM (inactive) in the assay on IGROV-1; > 100 µM (inactive) in the assay on K562; greater than 100 µM with HCT-15. Further, the GI50 with M14 is > 100 µM (inactive).
For `COC(=O)/C=C(\C(=O)OC)c1c2c3c(cc(OC)c(OC)c3c3ccccc13)CCN2C`, the GI50 is 17.9 µM (inactive) in the assay on HL-60; 45.7 µM (inactive) with OVCAR-8; 8.79 µM (inactive) in the assay on RXF 393; 25.1 µM (inactive) in the assay with HOP-62; 24.1 µM (inactive) in the assay with MOLT-4; 35.5 µM (inactive) with SNB-19. Further, the GI50 in the assay on LOX IMVI is 49.5 µM (inactive); with 786-0, 70.8 µM (inactive); with OVCAR-3 it was 28.2 µM (inactive); in the assay with DLD-1 it was 22.3 µM (inactive); in the assay with UO-31 it was 46.2 µM (inactive); with TK-10, 48.4 µM (inactive). The GI50 in the assay on HCC 2998 is 33.7 µM (inactive); with A549, 24.4 µM (inactive); in the assay with SF-268, > 100 µM (inactive); with IGROV-1, 26.8 µM (inactive); in the assay on K562, 26.2 µM (inactive); in the assay on HCT-15, 22.3 µM. In addition, the GI50 with M14 was 78.7 µM (inactive).
As for `CC(C)CC12CC3CCC(CNC1=O)C32C` (stereo not drawn), the GI50 in the assay on HL-60 was 31.9 µM (inactive); with OVCAR-8 it was > 100 µM (inactive); in the assay on RXF 393, > 100 µM (inactive); with HOP-62 it was > 100 µM (inactive); with MOLT-4 it was 40.5 µM (inactive); with SNB-19 it was > 100 µM (inactive). Also, the GI50 with LOX IMVI, with 786-0, with OVCAR-3, in the assay on DLD-1, in the assay with UO-31 and in the assay with TK-10 was > 100 µM (inactive) throughout. Further, the GI50 in the assay on HCC 2998 was > 100 µM (inactive); in the assay with A549 it was > 100 µM (inactive); in the assay on SF-268 it was > 100 µM (inactive); with IGROV-1, > 100 µM (inactive); with K562, 43.5 µM (inactive); in the assay with M14, > 100 µM (inactive).
On to `COc1ccc2[nH]c3c(cnn4cnnc34)c2c1`, for which the GI50 in the assay with HL-60, with OVCAR-8, with RXF 393, in the assay with HOP-62, in the assay with MOLT-4 and in the assay on SNB-19 was > 100 µM (inactive) in each case. Further, the GI50 in the assay with LOX IMVI, in the assay with 786-0, in the assay on OVCAR-3, with DLD-1, with UO-31 and in the assay with TK-10 was > 100 µM (inactive) each time. Moreover, the GI50 in the assay on HCC 2998 is > 100 µM (inactive); with A549, > 100 µM (inactive); in the assay on SF-268 it was > 100 µM (inactive); in the assay with IGROV-1, > 100 µM (inactive); in the assay on K562 it was > 100 µM (inactive); with HCT-15, greater than 100 µM. The GI50 in the assay with M14 is > 100 µM (inactive).
For the compound `COc1ccc(/C=C/c2cc(OC)cc(OC)c2)cc1` [TRISMETHOXYRESVERATROL], the GI50 with HL-60 was 2.56 µM (inactive); in the assay on OVCAR-8 it was 22.1 µM (inactive); in the assay with RXF 393 it was 3.05 µM (inactive); with HOP-62, 4.92 µM (inactive); in the assay with MOLT-4, 4.51 µM (inactive); with SNB-19 it was 20.7 µM (inactive). The GI50 is 6.7 µM (inactive) with LOX IMVI; 9.66 µM (inactive) in the assay with 786-0; 3.3 µM (inactive) with OVCAR-3; 5.28 µM (inactive) with DLD-1; 18.2 µM (inactive) with UO-31; 12.6 µM (inactive) with TK-10. Besides, the GI50 in the assay with HCC 2998 was 9.79 µM (inactive); with A549 it was 6.32 µM (inactive); in the assay with SF-268 it was 7.93 µM (inactive); with IGROV-1, 6.44 µM (inactive); in the assay on K562, 4.33 µM (inactive); with HCT-15, 4.57 µM. In the assay on M14, the GI50 is 6.53 µM (inactive).
